These compounds were tested against T1, hMCHR (MCH receptor) (Homo sapiens, UniProt Q99705) (assay: MCH Assay PCOP Protocol ([125I]-MCH SPA binding to hMCHR-CHO membranes)). Conditions: [125I]-MCH SPA binding, hMCHR-CHO membranes; Ki class ranges; read-out: Activity (range of Ki).
T1 construct: (or internally produced); host or cells: CHO (Chinese hamster ovary) cells, membrane preparation
T1 sequence (Q99705 whole entry): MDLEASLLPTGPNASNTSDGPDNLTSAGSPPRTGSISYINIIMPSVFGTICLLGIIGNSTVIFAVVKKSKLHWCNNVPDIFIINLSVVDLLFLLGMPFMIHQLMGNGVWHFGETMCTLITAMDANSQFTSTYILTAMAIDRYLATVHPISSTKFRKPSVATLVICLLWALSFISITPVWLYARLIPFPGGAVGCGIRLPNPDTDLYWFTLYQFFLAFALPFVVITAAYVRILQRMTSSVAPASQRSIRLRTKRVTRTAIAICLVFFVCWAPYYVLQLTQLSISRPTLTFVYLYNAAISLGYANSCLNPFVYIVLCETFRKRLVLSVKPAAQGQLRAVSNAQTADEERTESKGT
In short: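 SPA binding with 10 μg hMCHR-CHO membranes and WGA-SPA beads in 25 mM HEPES pH 7.4, 10 mM NaCl, 10 mM MgCl2, 5 mM MnCl2, 0.1% BSA.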
`COc1ccc2[nH]cc(CCNCCC(CNC(=O)Nc3cc(C(F)(F)F)cc(C(F)(F)F)c3)c3ccc(Cl)c(Cl)c3)c2c1` (centres unmarked) [Example 434] showed a Ki of 501 to 2500 nM.
For `CCN(CCC(CNC(=O)Nc1cc(C(F)(F)F)cc(C(F)(F)F)c1)c1ccc(Cl)c(Cl)c1)Cc1ccncc1` (centres unmarked) [Example 435], the Ki was 501 to 2500 nM.
For `CS(=O)(=O)c1ccc(CNCCC(CNC(=O)Nc2cc(C(F)(F)F)cc(C(F)(F)F)c2)c2ccc(Cl)c(Cl)c2)cc1` (centres unmarked) [Example 436], the Ki was 501 to 2500 nM.
`COc1ccc2c(CCNCCC(CNC(=O)Nc3cc(C(F)(F)F)cc(C(F)(F)F)c3)c3ccc(Cl)c(Cl)c3)c[nH]c2c1` (centres unmarked) [Example 437] was tested, and the Ki was 501 to 2500 nM.
`CC(Cc1c[nH]c2ccccc12)NCCC(CNC(=O)Nc1cc(C(F)(F)F)cc(C(F)(F)F)c1)c1ccc(Cl)c(Cl)c1` (centres unmarked) [Example 438] showed a Ki of 501 to 2500 nM.
With `CC(Cc1c[nH]c2ccc(F)cc12)NCCC(CNC(=O)Nc1cc(C(F)(F)F)cc(C(F)(F)F)c1)c1ccc(Cl)c(Cl)c1` (centres unmarked) [Example 439] the Ki was 501 to 2500 nM.
With `CCCCN(CCC(CNC(=O)Nc1cc(C(F)(F)F)cc(C(F)(F)F)c1)c1ccc(Cl)c(Cl)c1)C1CC1` (centres unmarked) [Example 440] the Ki was 501 to 2500 nM.
`COCC1CCCN1CCC(CNC(=O)Nc1cc(C(F)(F)F)cc(C(F)(F)F)c1)c1ccc(Cl)c(Cl)c1` (centres unmarked) [Example 441] was tested, and the Ki was 501 to 2500 nM.
In the case of `Cc1ccc(C(CCN2CCC(N3CCCCC3)CC2)CNC(=O)Nc2cc(C(F)(F)F)cc(C(F)(F)F)c2)cc1` (centres unmarked) [Example 443], the Ki is reported as 51 to 500 nM.
Compound `O=C(NCC(CCN1CCCCC1)c1ccc(Cl)c(Cl)c1)Nc1cc(C(F)(F)F)cc(C(F)(F)F)c1` (centres unmarked) [Example 444] has a Ki of 51 to 500 nM.
`Cc1ccc(C(CCN2CCCCC2)CNC(=O)Nc2cc(C(F)(F)F)cc(C(F)(F)F)c2)cc1` (centres unmarked) [Example 445] was tested, and the Ki was 501 to 2500 nM.
Compound `O=C(NCC(CCN1CCCCC1)c1ccc(Cl)c(Cl)c1)c1cc(Cl)cc(Cl)c1` (centres unmarked) [Example 446] has a Ki of 501 to 2500 nM.
Work on `O=C(NCC(CCN1CCCCC1)c1ccc(Cl)c(Cl)c1)c1cccc(Cl)c1` (centres unmarked) [Example 447] yielded a Ki of 501 to 2500 nM.
With `O=C(Cc1ccc(Cl)c(Cl)c1)NCC(CCN1CCC(N2CCCCC2)CC1)c1ccc(Cl)c(Cl)c1` (centres unmarked) [Example 448] the Ki was 501 to 2500 nM.
`O=C(NCC(CCN1CCCCC1)c1ccc(Cl)c(Cl)c1)c1cccc(C(F)(F)F)c1` (centres unmarked) [Example 449] showed a Ki of 501 to 2500 nM.
Compound `Cc1ccc(C(=O)NCC(CCN2CCCCC2)c2ccc(Cl)c(Cl)c2)cc1` (centres unmarked) [Example 450] has a Ki of 501 to 2500 nM.
Compound `Cc1ccc(C(CCN2CCC(N3CCCCC3)CC2)CNC(=O)Cc2ccc(Cl)c(Cl)c2)cc1` (centres unmarked) [Example 451] has a Ki of 501 to 2500 nM.
In the case of `O=C(NCC(CCN1CCC(N2CCCCC2)CC1)c1ccc(Cl)c(Cl)c1)c1cc(Cl)cc(Cl)c1` (centres unmarked) [Example 452], the Ki is reported as 501 to 2500 nM.
In the case of `N#Cc1cccc(C(=O)NCC(CCN2CCCCC2)c2ccc(Cl)c(Cl)c2)c1` (centres unmarked) [Example 453], the Ki is reported as 501 to 2500 nM.
`Cc1ccc(C(CCN2CCCCC2)CNC(=O)c2cc(C(F)(F)F)cc(C(F)(F)F)c2)cc1` (centres unmarked) [Example 454] gave a Ki of 501 to 2500 nM.
Compound `O=C(NCC(CCN1CCCCC1)c1ccc(Cl)c(Cl)c1)c1ccc(F)cc1` (centres unmarked) [Example 455] has a Ki of 501 to 2500 nM.
In the case of `Cc1cc(C)cc(C(=O)NCC(CCN2CCCCC2)c2ccc(Cl)c(Cl)c2)c1` (centres unmarked) [Example 456], the Ki is reported as 501 to 2500 nM.
In the case of `O=C(NCc1cc(C(F)(F)F)cc(C(F)(F)F)c1)C(CCN1CCC(N2CCCCC2)CC1)c1ccc(Cl)c(Cl)c1` (centres unmarked) [Example 457], the Ki is reported as 501 to 2500 nM.
